From patent US11278589B2, “Use of a cyclic tripeptide for improving cellular energy metabolism” (ASSISTANCE PUBLIQUE—HOPITAUX DE PARIS, priority 2015, dated 2022)
Positions of bridges follow the written chain, without caps; N, C: chain ends. Residues, ends and D or L forms follow the SMILES beside them.

Test system: Human oocytes
Assay: Randomized prospective study in human IVF (fertilin study)
Assay type: in vivo
Conditions: first step, 56 couples
Source text: A clinical trial was begun in the IVF laboratory of the MAP Center of Cochin, on Sep. 8, 2014, on 66 couples, the average age being 34.3±4.2 years old for the women and 37.0±5.2 for their partners. It is a randomized, single-center prospective study of in vitro fertilization (IVF) carried out in the presence or absence of FEEc. The oocytes, recovered from their cumulus, were divided up into two groups alternately into one and then into the other according to their order of recovery. When all the oocytes were recovered, a technician who had not participated in the recovery of the cumuli determined by randomization which of the two groups was inseminated in the presence of FEEc and which served as control. One part of the oocytes is incubated in the standard culture medium (Global, JCD), the other part in this same medium supplemented with 100 μM FEEc.
The methodology of this study, represented diagrammatically in FIG. 9, is presented below. Human oocytes originating from women 18 to 43 years old were recovered by ovarian puncture after hormonal stimulation by gynecologists. They were divided up in a randomized manner into 2 groups: the oocytes incubated in the presence of a standard culture medium supplemented with 100 μM FEEc or of a standard culture medium (Global, JCD), then placed in an incubator at 37° C. under an atmosphere of 5% of CO2. […]

SMILES: N[C@H]1CSSC[C@@H](C(=O)O)NC(=O)[C@H](CCC(=O)O)NC(=O)[C@H](CCC(=O)O)NC(=O)[C@H](Cc2ccccc2)NC(=O)[C@H](CO)NC1=O [FEEc, C-S-F-E-E-C] (H-CSFEEC-OH; disulfide 1-6)
- adverse effect: No adverse effect has been reported to date
